Results as given in patent publication US20060069132A1, “Azolecarboxamide herbicides” (priority 2004, published 2006).

Columns and labels:
barnyardgrass [1] = experiment: Test B pre-/postemergence herbicide test; format: in vivo, Echinochloa crus-galli; settings: for Barnyardgrass plant response rating (0 to 100 scale) / Plant response rating, Barnyardgrass: 0 = no effect, 100 = complete control, preemergence; for Plant response rating, Barnyardgrass / Barnyardgrass plant response rating: visual rating; for Barnyardgrass plant response rating: postemergence, scale 0 (no effect) to 100 (complete control)
Method in brief: (§1)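 Visual rating, 0 (no effect) to 100 (complete control), versus untreated controls after 13–15 d in greenhouse. Pre- and postemergence applications (postemergence plants 2–18 cm, 1–4 leaves); flooded paddy arm at 2-leaf stage. Compounds in non-phytotoxic solvent plus surfactant.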

Surinam grass = experiment: Test B pre-/postemergence herbicide test; format: in vivo, Urochloa decumbens; settings: for Surinam Grass plant response rating (0 to 100 scale) / Plant response rating, Surinam Grass: 0 = no effect, 100 = complete control, preemergence; for Plant response rating, Surinam Grass / Surinam Grass plant response rating: visual rating; for Surinam Grass plant response rating: postemergence, scale 0 (no effect) to 100 (complete control)
Method in brief: (§2)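 Test chemicals in a non-phytotoxic solvent mixture with surfactant were applied preemergence to seeded species and postemergence to plants 2-18 cm tall (1- to 4-leaf stage); rice and barnyardgrass were also tested in a flooded paddy at the 2-leaf stage. Visual rating versus controls after 13-15 days in greenhouse, scale 0 (no effect) to 100 (complete control).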

cocklebur = experiment: Test B pre-/postemergence herbicide test; format: in vivo, Xanthium strumarium; settings: for Cocklebur plant response rating (0 to 100 scale) / Plant response rating, Cocklebur: 0 = no effect, 100 = complete control, preemergence; for Plant response rating, Cocklebur / Cocklebur plant response rating: visual rating; for Cocklebur plant response rating: postemergence, scale 0 (no effect) to 100 (complete control)
Method in brief: as §1

corn = experiment: Test B pre-/postemergence herbicide test; format: in vivo, Zea mays; settings: for Corn plant response rating (0 to 100 scale) / Plant response rating, Corn: 0 = no effect, 100 = complete control, preemergence; for Plant response rating, Corn / Corn plant response rating: visual rating; for Corn plant response rating: postemergence, scale 0 (no effect) to 100 (complete control)
Method in brief: as §2

large crabgrass = experiment: Test B pre-/postemergence herbicide test; format: in vivo, Digitaria sanguinalis; settings: for Crabgrass, Large plant response rating (0 to 100 scale) / Plant response rating, Crabgrass, Large: 0 = no effect, 100 = complete control, preemergence; for Plant response rating, Crabgrass, Large / Crabgrass, Large plant response rating: visual rating; for Crabgrass, Large plant response rating: postemergence, scale 0 (no effect) to 100 (complete control)
Method in brief: as §2

giant foxtail = experiment: Test B pre-/postemergence herbicide test; format: in vivo, Setaria faberi; settings: for Foxtail, Giant plant response rating (0 to 100 scale) / Plant response rating, Foxtail, Giant: 0 = no effect, 100 = complete control, preemergence; for Plant response rating, Foxtail, Giant / Foxtail, Giant plant response rating: visual rating; for Foxtail, Giant plant response rating: postemergence, scale 0 (no effect) to 100 (complete control)
Method in brief: as §2

lambsquarters = experiment: Test B pre-/postemergence herbicide test; format: in vivo, Chenopodium album; settings: for Lambsquarters plant response rating (0 to 100 scale) / Plant response rating, Lambsquarters: 0 = no effect, 100 = complete control, preemergence; for Plant response rating, Lambsquarters / Lambsquarters plant response rating: visual rating; for Lambsquarters plant response rating: postemergence, scale 0 (no effect) to 100 (complete control)
Method in brief: as §2

morningglory = experiment: Test B pre-/postemergence herbicide test; format: in vivo, Ipomoea coccinea; settings: for Morningglory plant response rating (0 to 100 scale) / Plant response rating, Morningglory: 0 = no effect, 100 = complete control, preemergence; for Plant response rating, Morningglory / Morningglory plant response rating: visual rating; for Morningglory plant response rating: postemergence, scale 0 (no effect) to 100 (complete control)
Method in brief: as §1

pigweed = experiment: Test B pre-/postemergence herbicide test; format: in vivo, Amaranthus retroflexus; settings: for Pigweed plant response rating (0 to 100 scale) / Plant response rating, Pigweed: 0 = no effect, 100 = complete control, preemergence; for Plant response rating, Pigweed / Pigweed plant response rating: visual rating; for Pigweed plant response rating: postemergence, scale 0 (no effect) to 100 (complete control)
Method in brief: as §2

rice [2] = experiment: Test B pre-/postemergence herbicide test; format: in vivo, Oryza sativa; settings: 0 = no effect, 100 = complete control, preemergence; for Rice plant response rating (0 to 100 scale): 125 g ai/ha; for Plant response rating, Rice: 500 g ai/ha, visual rating
Method in brief: as §2

velvetleaf = experiment: Test B pre-/postemergence herbicide test; format: in vivo, Abutilon theophrasti; settings: for Velvetleaf plant response rating (0 to 100 scale) / Plant response rating, Velvetleaf: 0 = no effect, 100 = complete control, preemergence; for Plant response rating, Velvetleaf / Velvetleaf plant response rating: visual rating; for Velvetleaf plant response rating: postemergence, scale 0 (no effect) to 100 (complete control)
Method in brief: as §2

blackgrass = experiment: Test B postemergence herbicide test; format: in vivo, Alopecurus myosuroides; settings: postemergence, visual rating, scale 0 (no effect) to 100 (complete control)
Method in brief: (§3)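 Visual ratings, 0 (no effect) to 100 (complete control), made versus controls after 13–15 d greenhouse. Paddy plants treated at 2-leaf stage; postemergence plants at 1- to 4-leaf stage, 2–18 cm tall.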

wheat = experiment: Test B postemergence herbicide test; format: in vivo, Triticum aestivum; parameters: key to Wheat plant response rating: 0 = no effect, 100 = complete control; settings: postemergence, visual rating, scale 0 (no effect) to 100 (complete control)
Method in brief: (§4)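 After treating 2-leaf paddy plants or 2–18 cm postemergence plants (1 to 4 leaves) with formulated chemical, researchers kept them in a greenhouse for 13–15 days. Effects were judged visually versus controls: 0 indicates none, 100 total control.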

wild oat = experiment: Test B postemergence herbicide test; format: in vivo, Avena fatua; settings: postemergence, visual rating, scale 0 (no effect) to 100 (complete control)
Method in brief: as §4

rice [3] = experiment: Test B flooded paddy test; format: in vivo, Oryza sativa; settings: 1000 g ai/ha, scale 0 to 100 (0 no effect, 100 complete control)
Method in brief: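 Paddy species grown to the 2-leaf stage under flooding; blackgrass sprayed postemergence at 2–18 cm (1- to 4-leaf stage). Plants kept in a greenhouse for 13 to 15 days, then visually rated against controls on 0 (no effect) to 100 (complete control).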

[4] = tested on: small flower umbrella sedge; experiment: Test B flooded paddy test; format: in vivo, Cyperus difformis; settings: 1000 g ai/ha, scale 0 to 100 (0 no effect, 100 complete control)
Method in brief: as §3

ducksalad = experiment: Test B flooded paddy test; format: in vivo, Heteranthera limosa; settings: 1000 g ai/ha, scale 0 to 100 (0 no effect, 100 complete control)
Method in brief: as §3

barnyardgrass [5] = experiment: Test B flooded paddy test; format: in vivo, Echinochloa crus-galli; settings: 1000 g ai/ha, scale 0 to 100 (0 no effect, 100 complete control)
Method in brief: as §3

CCNC(=O)c1ccnc(NC(=O)c2nn(C(C)(C)C)cc2CC)c1 [Compound 233]
0: Surinam Grass plant response rating (0 to 100 scale) (Surinam grass; 125 g ai/ha) | Cocklebur plant response rating (0 to 100 scale) (cocklebur; 125 g ai/ha) | Plant response rating, Cocklebur (cocklebur; 500 g ai/ha) | Corn plant response rating (0 to 100 scale) (corn; 125 g ai/ha) | Plant response rating, Corn (corn; 500 g ai/ha) | Foxtail, Giant plant response rating (0 to 100 scale) (giant foxtail; 125 g ai/ha) | Plant response rating, Foxtail, Giant (giant foxtail; 500 g ai/ha) | Foxtail, Giant plant response rating (giant foxtail; 125 g ai/ha) | Lambsquarters plant response rating (0 to 100 scale) (lambsquarters; 125 g ai/ha) | Morningglory plant response rating (0 to 100 scale) (morningglory; 125 g ai/ha) | Plant response rating, Morningglory (morningglory; 500 g ai/ha) | Pigweed plant response rating (0 to 100 scale) (pigweed; 125 g ai/ha) | Rice plant response rating (0 to 100 scale) (rice [2]) | Plant response rating, Rice (rice [2]) | Blackgrass plant response rating (blackgrass; 125 g ai/ha) | Wheat plant response rating (wheat; 125 g ai/ha) | Oat, Wild plant response rating (wild oat; 125 g ai/ha) | Barnyardgrass plant response rating (barnyardgrass [5])
80: Morningglory plant response rating (morningglory; 500 g ai/ha) | Sedge, Umbrella plant response rating [4]
30: Corn plant response rating (corn; 500 g ai/ha) | Foxtail, Giant plant response rating (giant foxtail; 500 g ai/ha) | Plant response rating, Lambsquarters (lambsquarters; 500 g ai/ha) | Velvetleaf plant response rating (velvetleaf; 125 g ai/ha) | Rice plant response rating (rice [3])
90: Plant response rating, Crabgrass, Large (large crabgrass; 500 g ai/ha)
20: Plant response rating, Surinam Grass (Surinam grass; 500 g ai/ha) | Surinam Grass plant response rating (Surinam grass; 500 g ai/ha) | Cocklebur plant response rating (cocklebur; 125 g ai/ha) | Cocklebur plant response rating (cocklebur; 500 g ai/ha) | Crabgrass, Large plant response rating (0 to 100 scale) (large crabgrass; 125 g ai/ha) | Oat, Wild plant response rating (wild oat; 500 g ai/ha)
60: Plant response rating, Pigweed (pigweed; 500 g ai/ha) | Pigweed plant response rating (pigweed; 125 g ai/ha)
10: Barnyardgrass plant response rating (0 to 100 scale) (barnyardgrass [1]; 125 g ai/ha) | Plant response rating, Barnyardgrass (barnyardgrass [1]; 500 g ai/ha) | Surinam Grass plant response rating (Surinam grass; 125 g ai/ha) | Corn plant response rating (corn; 125 g ai/ha) | Crabgrass, Large plant response rating (large crabgrass; 125 g ai/ha) | Crabgrass, Large plant response rating (large crabgrass; 500 g ai/ha) | Velvetleaf plant response rating (0 to 100 scale) (velvetleaf; 125 g ai/ha) | Plant response rating, Velvetleaf (velvetleaf; 500 g ai/ha) | Blackgrass plant response rating (blackgrass; 500 g ai/ha) | Wheat plant response rating (wheat; 500 g ai/ha)
50: Lambsquarters plant response rating (lambsquarters; 125 g ai/ha) | Morningglory plant response rating (morningglory; 125 g ai/ha) | Velvetleaf plant response rating (velvetleaf; 500 g ai/ha) | Ducksalad plant response rating (ducksalad)
70: Lambsquarters plant response rating (lambsquarters; 500 g ai/ha) | Pigweed plant response rating (pigweed; 500 g ai/ha)

CCOC(=O)c1ccnc(NC(=O)c2cn(C(C)(C)C)nc2CC)c1 [Compound 238]
30: Rice plant response rating (rice [3])
80: Sedge, Umbrella plant response rating [4]
20: Cocklebur plant response rating (cocklebur; 500 g ai/ha) | Wheat plant response rating (wheat; 500 g ai/ha)
0: Barnyardgrass plant response rating (0 to 100 scale) (barnyardgrass [1]; 125 g ai/ha) | Plant response rating, Barnyardgrass (barnyardgrass [1]; 500 g ai/ha) | Barnyardgrass plant response rating (barnyardgrass [1]; 125 g ai/ha) | Barnyardgrass plant response rating (barnyardgrass [1]; 500 g ai/ha) | Surinam Grass plant response rating (0 to 100 scale) (Surinam grass; 125 g ai/ha) | Plant response rating, Surinam Grass (Surinam grass; 500 g ai/ha) | Surinam Grass plant response rating (Surinam grass; 125 g ai/ha) | Surinam Grass plant response rating (Surinam grass; 500 g ai/ha) | Cocklebur plant response rating (0 to 100 scale) (cocklebur; 125 g ai/ha) | Plant response rating, Cocklebur (cocklebur; 500 g ai/ha) | Cocklebur plant response rating (cocklebur; 125 g ai/ha) | Corn plant response rating (0 to 100 scale) (corn; 125 g ai/ha) | Plant response rating, Corn (corn; 500 g ai/ha) | Corn plant response rating (corn; 125 g ai/ha) | Corn plant response rating (corn; 500 g ai/ha) | Crabgrass, Large plant response rating (0 to 100 scale) (large crabgrass; 125 g ai/ha) | Plant response rating, Crabgrass, Large (large crabgrass; 500 g ai/ha) | Crabgrass, Large plant response rating (large crabgrass; 125 g ai/ha) | Crabgrass, Large plant response rating (large crabgrass; 500 g ai/ha) | Foxtail, Giant plant response rating (0 to 100 scale) (giant foxtail; 125 g ai/ha) | Plant response rating, Foxtail, Giant (giant foxtail; 500 g ai/ha) | Foxtail, Giant plant response rating (giant foxtail; 125 g ai/ha) | Foxtail, Giant plant response rating (giant foxtail; 500 g ai/ha) | Lambsquarters plant response rating (0 to 100 scale) (lambsquarters; 125 g ai/ha) | Plant response rating, Lambsquarters (lambsquarters; 500 g ai/ha) | Lambsquarters plant response rating (lambsquarters; 125 g ai/ha) | Lambsquarters plant response rating (lambsquarters; 500 g ai/ha) | Morningglory plant response rating (0 to 100 scale) (morningglory; 125 g ai/ha) | Plant response rating, Morningglory (morningglory; 500 g ai/ha) | Morningglory plant response rating (morningglory; 125 g ai/ha) | Morningglory plant response rating (morningglory; 500 g ai/ha) | Pigweed plant response rating (0 to 100 scale) (pigweed; 125 g ai/ha) | Plant response rating, Pigweed (pigweed; 500 g ai/ha) | Pigweed plant response rating (pigweed; 125 g ai/ha) | Pigweed plant response rating (pigweed; 500 g ai/ha) | Rice plant response rating (0 to 100 scale) (rice [2]) | Plant response rating, Rice (rice [2]) | Velvetleaf plant response rating (0 to 100 scale) (velvetleaf; 125 g ai/ha) | Plant response rating, Velvetleaf (velvetleaf; 500 g ai/ha) | Velvetleaf plant response rating (velvetleaf; 125 g ai/ha) | Blackgrass plant response rating (blackgrass; 125 g ai/ha) | Wheat plant response rating (wheat; 125 g ai/ha) | Oat, Wild plant response rating (wild oat; 125 g ai/ha) | Ducksalad plant response rating (ducksalad)
10: Velvetleaf plant response rating (velvetleaf; 500 g ai/ha) | Blackgrass plant response rating (blackgrass; 500 g ai/ha) | Oat, Wild plant response rating (wild oat; 500 g ai/ha) | Barnyardgrass plant response rating (barnyardgrass [5])
